We go through three compounds from paper PMC12518996 (Frontiers in Pharmacology, 2025).

Common to all, as to format: in vitro ADME
Settings in all cases: trazodone 4 μM; NADPH; 37 °C, 40 min

One data set addresses T1, CYP3A2 (Rattus norvegicus, UniProt P05183).
T1 sequence (P05183 1-504): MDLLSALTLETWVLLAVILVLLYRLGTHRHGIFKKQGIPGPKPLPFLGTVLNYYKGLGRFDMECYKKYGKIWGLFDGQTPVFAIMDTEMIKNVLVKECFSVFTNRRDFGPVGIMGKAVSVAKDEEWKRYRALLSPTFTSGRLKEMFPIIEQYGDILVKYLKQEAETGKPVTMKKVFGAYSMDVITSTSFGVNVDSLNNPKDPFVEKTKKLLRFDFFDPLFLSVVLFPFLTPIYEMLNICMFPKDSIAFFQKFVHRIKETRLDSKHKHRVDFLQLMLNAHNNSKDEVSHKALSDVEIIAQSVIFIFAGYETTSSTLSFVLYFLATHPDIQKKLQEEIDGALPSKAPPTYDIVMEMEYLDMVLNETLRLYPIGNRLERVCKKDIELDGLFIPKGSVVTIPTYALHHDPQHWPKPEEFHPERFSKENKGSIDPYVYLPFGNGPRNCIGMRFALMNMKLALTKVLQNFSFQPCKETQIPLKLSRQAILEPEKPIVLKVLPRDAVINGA
As to the kind of experiment: Metabolite formation by recombinant rat CYP3A2. As to the method:
(§1) Each reaction was terminated with acetonitrile, centrifuged, and the supernatant was analyzed by identical UHPLC-Orbitrap setup outlined in §2.2, allowing direct comparison of metabolite spectra across all in-vitro systems.

The target in another data set is CYP2D6 (Homo sapiens, UniProt P10635). As to the kind of experiment: Metabolite formation by recombinant human CYP2D6. The method, then: (§2) To confirm the role of individual CYP isoforms in metabolizing trazodone, recombinant human and rat CYP enzymes were employed in separate incubations. […] Each reaction was terminated with acetonitrile, centrifuged, and the supernatant was analyzed by identical UHPLC-Orbitrap setup outlined in §2.2, allowing direct comparison of metabolite spectra across all in-vitro systems. […] This procedure helped confirm the contributions of individual isoforms to specific biotransformation reactions.
Sequence of CYP2D6 (P10635 whole entry, canonical isoform): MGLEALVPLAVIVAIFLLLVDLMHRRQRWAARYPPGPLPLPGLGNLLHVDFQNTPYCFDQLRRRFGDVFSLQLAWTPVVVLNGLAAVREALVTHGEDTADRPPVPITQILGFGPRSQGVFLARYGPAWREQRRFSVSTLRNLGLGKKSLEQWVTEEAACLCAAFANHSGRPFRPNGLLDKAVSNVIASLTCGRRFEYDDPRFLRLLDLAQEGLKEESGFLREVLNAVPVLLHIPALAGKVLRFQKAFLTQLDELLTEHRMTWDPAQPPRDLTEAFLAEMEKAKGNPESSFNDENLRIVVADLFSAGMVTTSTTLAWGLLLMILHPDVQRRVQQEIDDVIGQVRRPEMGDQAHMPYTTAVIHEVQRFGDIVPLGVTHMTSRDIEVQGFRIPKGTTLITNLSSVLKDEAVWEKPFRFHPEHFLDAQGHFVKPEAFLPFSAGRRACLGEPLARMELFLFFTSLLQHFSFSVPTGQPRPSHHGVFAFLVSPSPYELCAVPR

Another data set addresses CYP3A5 (Homo sapiens, UniProt P20815). The data set is described as follows: Metabolite formation by recombinant human CYP3A5. As to the method: as §1
Another data set deals with T2, CYP2C11 (Rattus norvegicus, UniProt P08683).
T2 sequence (P08683 1-500): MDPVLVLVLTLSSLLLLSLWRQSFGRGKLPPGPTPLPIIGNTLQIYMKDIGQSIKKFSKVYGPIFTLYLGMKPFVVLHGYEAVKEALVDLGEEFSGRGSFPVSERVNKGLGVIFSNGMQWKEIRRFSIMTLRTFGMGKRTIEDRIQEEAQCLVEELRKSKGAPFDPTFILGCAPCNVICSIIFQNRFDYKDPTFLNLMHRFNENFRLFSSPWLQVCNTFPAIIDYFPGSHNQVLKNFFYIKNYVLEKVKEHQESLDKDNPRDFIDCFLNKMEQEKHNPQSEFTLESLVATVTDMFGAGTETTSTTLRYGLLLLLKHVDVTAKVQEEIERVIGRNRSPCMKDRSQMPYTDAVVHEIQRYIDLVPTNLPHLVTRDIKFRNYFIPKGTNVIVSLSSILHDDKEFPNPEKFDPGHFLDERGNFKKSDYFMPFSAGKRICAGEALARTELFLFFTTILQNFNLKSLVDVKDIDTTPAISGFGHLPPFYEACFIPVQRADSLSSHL
The data set is described as follows: Metabolite formation by recombinant rat CYP2C11. The method, then:
as §2

Another data set has as its target CYP2C19 (Homo sapiens, UniProt P33261). As to the kind of experiment: Metabolite formation by recombinant human CYP2C19. As to the method:
as §2

In another data set the target is T3, CYP2B6 (Homo sapiens, UniProt P20813).
T3 sequence (P20813 1-491): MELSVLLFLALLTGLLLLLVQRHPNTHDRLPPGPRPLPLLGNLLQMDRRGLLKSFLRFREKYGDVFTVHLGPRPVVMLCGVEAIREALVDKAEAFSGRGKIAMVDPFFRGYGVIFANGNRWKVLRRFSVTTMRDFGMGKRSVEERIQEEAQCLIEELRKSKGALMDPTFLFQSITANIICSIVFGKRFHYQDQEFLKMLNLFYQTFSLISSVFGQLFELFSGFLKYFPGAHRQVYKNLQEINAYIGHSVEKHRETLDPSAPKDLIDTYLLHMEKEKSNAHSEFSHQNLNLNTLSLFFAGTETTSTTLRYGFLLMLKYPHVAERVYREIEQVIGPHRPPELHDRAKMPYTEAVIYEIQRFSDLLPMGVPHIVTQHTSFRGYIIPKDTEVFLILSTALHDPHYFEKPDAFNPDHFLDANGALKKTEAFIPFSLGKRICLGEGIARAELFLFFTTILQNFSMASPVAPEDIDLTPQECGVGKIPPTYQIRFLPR
As to the kind of experiment: Metabolite formation by recombinant human CYP2B6. The method, then:
as §2

In another data set the target is T4, CYP1B1 (Rattus norvegicus, UniProt Q64678).
T4 sequence (Q64678 1-543): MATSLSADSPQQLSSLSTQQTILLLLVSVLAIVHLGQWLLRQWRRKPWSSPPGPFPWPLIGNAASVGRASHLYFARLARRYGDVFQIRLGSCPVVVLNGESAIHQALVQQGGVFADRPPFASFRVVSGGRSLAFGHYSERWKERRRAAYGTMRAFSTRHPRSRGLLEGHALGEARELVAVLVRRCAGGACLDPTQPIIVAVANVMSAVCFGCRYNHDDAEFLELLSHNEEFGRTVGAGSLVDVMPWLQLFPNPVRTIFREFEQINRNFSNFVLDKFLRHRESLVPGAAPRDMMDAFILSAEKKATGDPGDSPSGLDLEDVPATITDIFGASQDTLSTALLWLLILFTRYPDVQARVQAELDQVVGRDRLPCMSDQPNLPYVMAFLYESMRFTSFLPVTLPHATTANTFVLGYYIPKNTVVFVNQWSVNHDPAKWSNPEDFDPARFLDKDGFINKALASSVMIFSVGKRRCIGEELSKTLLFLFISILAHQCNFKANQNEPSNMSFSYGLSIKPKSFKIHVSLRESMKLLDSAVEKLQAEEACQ
The data set is described as follows: Metabolite formation by recombinant rat CYP1B1. As to the method: as §2

The structures appear in SMILES notation.

Sequence of CYP2C19 (P33261 whole entry): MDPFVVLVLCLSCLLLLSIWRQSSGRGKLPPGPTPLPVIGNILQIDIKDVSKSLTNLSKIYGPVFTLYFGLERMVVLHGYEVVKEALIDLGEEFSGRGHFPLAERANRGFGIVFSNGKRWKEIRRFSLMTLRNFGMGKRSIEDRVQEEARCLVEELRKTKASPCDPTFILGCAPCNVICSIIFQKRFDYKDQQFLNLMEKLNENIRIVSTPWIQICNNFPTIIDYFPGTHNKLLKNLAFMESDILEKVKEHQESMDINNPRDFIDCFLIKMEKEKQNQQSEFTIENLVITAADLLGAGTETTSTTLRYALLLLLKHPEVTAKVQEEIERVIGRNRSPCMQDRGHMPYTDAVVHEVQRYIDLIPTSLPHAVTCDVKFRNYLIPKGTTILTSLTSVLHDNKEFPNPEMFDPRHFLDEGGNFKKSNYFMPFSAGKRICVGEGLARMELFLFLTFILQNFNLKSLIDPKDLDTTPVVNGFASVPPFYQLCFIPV
Sequence of CYP3A5 (P20815 whole entry): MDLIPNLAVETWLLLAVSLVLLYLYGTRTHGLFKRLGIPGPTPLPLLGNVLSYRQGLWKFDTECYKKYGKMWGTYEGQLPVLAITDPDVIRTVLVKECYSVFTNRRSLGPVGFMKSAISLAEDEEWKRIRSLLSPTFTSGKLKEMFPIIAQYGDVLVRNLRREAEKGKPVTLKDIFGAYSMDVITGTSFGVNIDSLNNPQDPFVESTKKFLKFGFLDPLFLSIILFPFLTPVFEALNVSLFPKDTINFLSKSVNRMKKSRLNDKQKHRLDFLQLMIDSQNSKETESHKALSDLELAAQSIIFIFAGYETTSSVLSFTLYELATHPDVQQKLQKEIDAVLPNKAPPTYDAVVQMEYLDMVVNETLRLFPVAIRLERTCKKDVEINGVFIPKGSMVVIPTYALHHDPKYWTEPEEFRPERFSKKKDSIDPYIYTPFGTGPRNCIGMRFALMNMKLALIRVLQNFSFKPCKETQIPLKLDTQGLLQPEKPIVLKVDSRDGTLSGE

Turning to `O=c1n(CCCN2CCNCC2)nc2ccccn12` [Metabolite M15], the “Formation of trazodone phase I metabolite by recombinant rat CYP3A2 (as LC/MS peak areas)” value on CYP3A2 is 3368. In addition, the “Formation of trazodone phase I metabolite by recombinant human CYP2D6 (as LC/MS peak areas)” value at CYP2D6 was found to be 0. Moreover, the “Formation of trazodone phase I metabolite by recombinant human CYP3A5 (as LC/MS peak areas)” value at CYP3A5 came to 3343. For the same compound, the “Formation of trazodone phase I metabolite by recombinant rat CYP2C11 (as LC/MS peak areas)” value on CYP2C11 is reported as 1210. The “Formation of trazodone phase I metabolite by recombinant human CYP2C19 (as LC/MS peak areas)” value at CYP2C19 came out at 180. The “Formation of trazodone phase I metabolite by recombinant human CYP2B6 (as LC/MS peak areas)” value at CYP2B6 is given as 0. Further, the “Formation of trazodone phase I metabolite by recombinant rat CYP1B1 (as LC/MS peak areas)” value at CYP1B1 was found to be 22.

With `O=c1n(CCCO)nc2ccccn12` [Metabolite M20], the “Formation of trazodone phase I metabolite by recombinant rat CYP3A2 (as LC/MS peak areas)” value at CYP3A2 is 5761. For the same compound, the “Formation of trazodone phase I metabolite by recombinant human CYP2D6 (as LC/MS peak areas)” value at CYP2D6 came out at 0. The “Formation of trazodone phase I metabolite by recombinant human CYP3A5 (as LC/MS peak areas)” value on CYP3A5 was 108. In addition, the “Formation of trazodone phase I metabolite by recombinant rat CYP2C11 (as LC/MS peak areas)” value on CYP2C11 turned out to be 743. For the same compound, the “Formation of trazodone phase I metabolite by recombinant human CYP2C19 (as LC/MS peak areas)” value on CYP2C19 was 0. On CYP2B6, the “Formation of trazodone phase I metabolite by recombinant human CYP2B6 (as LC/MS peak areas)” value is 0. On CYP1B1, the “Formation of trazodone phase I metabolite by recombinant rat CYP1B1 (as LC/MS peak areas)” value turned out to be 94.

`Clc1cccc(N2CCNCC2)c1` [mCPP, m-chlorophenylpiperazine]: the “Formation of trazodone phase I metabolite by recombinant rat CYP3A2 (as LC/MS peak areas)” value at CYP3A2 came out at 45534. Besides, the “Formation of trazodone phase I metabolite by recombinant human CYP2D6 (as LC/MS peak areas)” value on CYP2D6 is reported as 0. The “Formation of trazodone phase I metabolite by recombinant human CYP3A5 (as LC/MS peak areas)” value on CYP3A5 worked out at 16847. Moreover, at CYP2C11, the “Formation of trazodone phase I metabolite by recombinant rat CYP2C11 (as LC/MS peak areas)” value is reported as 6920. At CYP2C19, the “Formation of trazodone phase I metabolite by recombinant human CYP2C19 (as LC/MS peak areas)” value stood at 189. Also, the “Formation of trazodone phase I metabolite by recombinant human CYP2B6 (as LC/MS peak areas)” value at CYP2B6 stood at 112. Moreover, the “Formation of trazodone phase I metabolite by recombinant rat CYP1B1 (as LC/MS peak areas)” value at CYP1B1 came to 724.
